The values below come from US20090118285A1, “USE OF KCNQ-OPENERS FOR TREATING OR REDUCING THE SYMPTOMS OF SCHIZOPHRENIA” (H. Lundbeck A/S, priority 2006, published 2009).

Where only a bound is given, the exact number is not on record here.

One series concerns DA neurons in the VTA. Description: Spontaneous DA cell firing in the VTA of anaesthetised rats (in vivo electrophysiology). The note with it: mean ± SEM. Further details: species or system rat. From the text:
In the mesolimbic system, all clinically used neuroleptics initially increase the firing rate of dopaminergic neurons (Tung et al., 1991, J. Neural Transm. Gen Sect., 84(1-2), 53-64,). After chronic administration, such neuroleptics eventually (after 3-4 weeks of treatment) decrease the firing rate to below pre-treatment levels (Skarsfeldt 1992, Synapse, 10, 25-33; White and Wang 1983, Science, 221, 1054-1057). This inhibitory effect on dopaminergic neurones, which is believed to be mediated by a depolarization blockade, is thought to be of therapeutic significance to the antipsychotic effect of neuroleptics (Grace and Bunney 1986, J. Pharmacol. Exp. Ther. 238, 1092-1100). […] The presence of KCNQ subunits on DA neurons in the VTA in rodents is well-documented but their functionality is unknown (Saganich et al. 2001, J. Neurosci. 21(13)4609-4624; Cooper et al. 2001, J. Neurosci., 21(24)9529-9540).
Subjects. Male Wistar rats (Harlan, The Netherlands) weighing 270-340 g were used. The animals were housed under a 12-hr light/dark cycle under controlled conditions for regular in-door temperature (21±2° C.) and humidity (55±5%) with food and tap water available ad libitum.
Experimental procedure. The rats were anaesthetised with an intraperitoneal injection of chloral hydrate (400 mg/kg). A femoral vein catheter was then inserted for supplementary anaesthetic injections (100 mg/kg) and drug administration. Animals were then mounted in a stereotaxic frame, the skull was exposed, and a hole (0.5×0.5 cm) was drilled above the ventral tegmental area. Extracellular single-cell recordings were performed using electrodes pulled from glass capillaries and filled with 2% Pontamine Sky Blue in 2 M NaCl. The tip of the electrode was broken under microscopic control, yielding an impedance of 2.0-8.0 MΩ at 135 Hz. The electrode was then lowered into the brain, using a hydraulic microdrive, aimed at the following coordinates: 5.5-5.0 mm posterior to Bregma; 0.5-0.9 mm lateral to the midline. Extracellular action potentials were amplified, discriminated and monitored on an oscilloscope and an audiomonitor. Discriminated spikes were collected and analysed using Spike 2 software (Cambridge Electronic Design Ltd., Cambridge, UK) on a PC-based system connected to a CED 1401 interface unit (Cambridge Electronic Design Ltd.). Presumed dopaminergic neurons were typically found 7.0-8.5 mm beneath the brain surface and were characterised by (1) a slow and irregular firing pattern (0.5-10 Hz), and (2) triphasic action potentials with a predominant positive component, a negative component followed by a minor positive component, with an overall duration >2.5 ms (Bunney et al. 1973, J. Pharmacol. Exp. Ther., 185, 560-571.).
Administration of compounds. […] These i.v. doses match the s.c. dose range of 0-10 mg/kg.
Statistical analysis. Drug effects were assessed by statistical comparison of the mean firing rate calculated from the 2-3 min period immediately before the first drug administration (baseline) to the mean firing rate calculated from at least 60 s at the maximal drug effect. Data were analysed statistically by a one-way ANOVA followed by Student-Newman-Keuls posthoc test. A p-value less than 0.05 was considered significant.

Series [1] deals with amphetamine-induced hyperactivity in the rat. Put plainly: Amphetamine challenge: d-amphetamine induced hyperactivity in rats. The class given is in vivo. The note with it: test substance s.c. 30 min before d-amphetamine sulphate 0.5 mg/kg, motility 2 hours, read-out: Amphetamine antagonism ED50 ± std. dev. An excerpt:
D-amphetamine administration to rodents stimulates an increase in locomotor activity via mesolimbic dopamine receptors in the nucleus accumbens. While psychostimulant psychosis may not model all forms of schizophrenia, it may have applicability to paranoid schizophrenia and non-schizophrenic psychotic disorders (Krystal et al. pp. 214-224 in Neurobiology of Mental Illness ISBN 0-19-511265-2). It is believed that inhibition of the amphetamine-induced increase in locomotor activity is a reliable method for the evaluation of compounds with an antipsychotic potential (Ögren et al., European J. Pharmacol. 1984, 102, 459-464). In the following experiment, it was tested if the inhibition of spontaneous DA neurons in the mesolimbic circuit that was assessed above, could be translated into behavioral antipsychotic endpoint.
Subjects. Male Wistar rats (Taconic, Denmark) weighing 170-240 g are used. The animals were housed under a 12-hr light/dark cycle under controlled conditions for regular in-door temperature (21±2° C.) and humidity (55±5%) with food and tap water available ad libitum. Eight rats were used at each dose level and in the parallel control group receiving the vehicle to the test compound plus d-amphetamine and the group receiving vehicle injections only.

Series [2] has as its system DA levels in the nucleus accumbens. Description: Microdialysis: DA levels in the nucleus accumbens of freely moving rats. The format is in vivo, rat. Particulars: no amphetamine provocation, data not shown.
The next series relates to KCNQ channels. Particulars: Wuttke et al. 2005; cited from earlier work.
The next series in a line: in vivo. The note with it: Wistar, rat, sc.

Consider `CCOC(=O)Nc1ccc(NCc2ccc(F)cc2)cc1N`, for which the “Spontaneous DA cell firing rate” value is recorded as 95.4 ± 5.0 (4) percentage of baseline firing rate with DA neurons in the VTA (cumulated dose 0.3 mg/kg i.v.); 90.5 ± 4.6 (5) percentage of baseline firing rate in the series on DA neurons in the VTA (cumulated dose 1.0 mg/kg i.v.); 81.1 ± 5.1 (5) percentage of baseline firing rate in the series on DA neurons in the VTA (cumulated dose 2.0 mg/kg i.v.); 67.1 ± 3.7 (4) percentage of baseline firing rate with DA neurons in the VTA (cumulated dose 4.0 mg/kg i.v.); 60.6 ± 0.7 (2) percentage of baseline firing rate in the series with DA neurons in the VTA (cumulated dose 6.0 mg/kg i.v.). Further, the ED50 in series [1] came to 2.3 mg/kg. Besides, the “Effect on basal extracellular DA level in the nucleus accumbens” value in series [2] is given as “merely provoked levels of DA were affected, but not basal levels of DA”. The “Binding to KCNQ channels” value in the series on KCNQ channels is reported as “bind to KCNQ channels”. In “in vivo”, the ED50 at 2 h was greater than 8.1 mg/kg.

One may read the ED50 as the midpoint of the dose-response relation.
